Experiments:
[1] = Water solubility; format: physicochemical
Description: The carbohydrates were synthesized as described (Gilbert et al., 2002, J Biol Chem, 277: 327), by modification of the process for phenylthio-GD2 (Tong et al., 2010, Cehm Biol, 17: 183) in which the thio-phenyl analog originally reported was substituted with an p-aminophenyl-(β-D-lactopyranoside (AP-Lac), from Toronto Research Chemicals), for subsequent conjugation to the dendrimer (see below). AP-GD2 was water soluble (>20 mg/ml), and was purified to >99% purity by size-exclusion (Superdex 30 16 mm×85 cm column, GE Health Care). The measured molecular weight of AP-GD2 was 1218 g/mol and corresponded to expected values. Structures were verified by 1D and 2D NMR spectroscopy and mass spectrometry (EI-MS) (see FIGS. 2A and B).

[2] = test system: EL4-GD2+ cells; assay: Mixed lymphocyte reaction, 3H-thymidine incorporation, EL4-GD2+ stimulators; format: cell-based, mouse; conditions: EL4-GD2+ cells alone
Description: (§1) EL4-GD2^+ cells and control Jurkat cells were treated with 25 μg/ml Mitomycin (Sigma) for 1 hr to arrest their proliferation. After the cells were washed three times with media to remove Mitomycin, they were plated in 96-well plates at 2×10^5 cells/well. Single cell suspensions of splenocytes were obtained from twice immunized (as above) and from vehicle injected control mice. Cells were separated following the protocol of the EASYSEP™ magnet (Stem Cell Tech). […] The T cells were plated at a ratio of 10:1 with Mitomycin-treated EL4 or Jurkat cells. As controls, cultures of T cells alone (no stimulating tumor cells) or T cells treated with ConcanavilinA were used. After 5 days of culture, 0.1μCi/well ^3H-thymidine (Sigma-Aldrich) was added. DNA-incorporated ^3H-thymidine was counted by liquid scintillation, and data are reported as average cpm±sd.

[3] = test system: Jurkat cells; assay: Mixed lymphocyte reaction, 3H-thymidine incorporation, Jurkat stimulators; format: cell-based; conditions: Jurkat cells alone
Description: as §1

Row | SMILES | solubility [1] [mg/mL] | 3H-thymidine incorporation of treated stimulator cells [2] [cpm] | 3H-thymidine incorporation of treated stimulator cells [3] [cpm]
1 | CC(=O)NC1C(OC2C(CO)OC(OC3C(CO)OC(Oc4ccc(N)cc4)C(O)C3O)C(O)C2OC2(C(=O)O)CC(O)C(NC(C)=O)C([C@H](O)C(CO)OC3(C(=O)O)CC(O)C(NC(C)=O)C([C@H](O)[C@H](O)CO)O3)O2)OC(CO)C(O)C1O (stereo partly drawn) [AP-GD2] | > 20 | – | –
2 | CO[C@@]12[C@H](COC(N)=O)C3=C(C(=O)C(C)=C(N)C3=O)N1C[C@@H]1N[C@@H]12 [Mitomycin] | – | 188±4 | 107±5
